# Test results taken from patent US8729078B2, “Inhibitors of bruton's tyrosine kinase” (Hoffmann-La Roche Inc., priority 2011, dated 2014).
# Biological target: Btk (Homo sapiens (Human), UniProt Q06187)
# Assay: Bruton's Tyrosine Kinase (Btk) inhibition assay (FRET BTK)
# Type: biochemical
# Sequence of Btk (Q06187 whole entry): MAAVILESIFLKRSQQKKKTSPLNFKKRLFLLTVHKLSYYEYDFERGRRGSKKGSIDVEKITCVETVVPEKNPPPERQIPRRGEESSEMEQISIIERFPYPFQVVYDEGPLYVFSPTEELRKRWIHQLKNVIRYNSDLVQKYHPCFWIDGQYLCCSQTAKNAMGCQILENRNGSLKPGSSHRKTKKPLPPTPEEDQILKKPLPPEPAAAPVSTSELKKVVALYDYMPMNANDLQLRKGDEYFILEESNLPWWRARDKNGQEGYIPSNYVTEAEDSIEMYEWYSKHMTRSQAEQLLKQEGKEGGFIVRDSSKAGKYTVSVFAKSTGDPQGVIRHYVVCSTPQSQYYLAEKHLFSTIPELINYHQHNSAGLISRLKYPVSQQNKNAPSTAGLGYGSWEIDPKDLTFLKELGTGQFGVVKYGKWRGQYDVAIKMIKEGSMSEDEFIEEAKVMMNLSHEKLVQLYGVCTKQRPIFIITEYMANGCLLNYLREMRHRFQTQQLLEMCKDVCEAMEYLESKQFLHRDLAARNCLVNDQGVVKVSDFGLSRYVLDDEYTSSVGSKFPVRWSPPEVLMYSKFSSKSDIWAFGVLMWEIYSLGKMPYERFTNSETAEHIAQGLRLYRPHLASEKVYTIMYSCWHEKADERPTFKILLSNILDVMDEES
row,SMILES,IC50 [nM]
1,"Cn1cc(-c2cccc(-n3ccc4cc(C5CC5)cc(F)c4c3=O)c2CO)cc1C(N)=O [Compound I-13, 4-[3-(6-Cyclopropyl-8-fluoro-1-oxo-1H-isoquinolin-2-yl)-2-hydroxymethyl-phenyl]-1-methyl-1H-pyrrole-2-carboxylic acid amide]",39.4
2,"CC(C)(C)c1cc(F)c2c(=O)n(-c3cccc(-n4cc(C(N)=O)c(Nc5cnccn5)n4)c3CO)ncc2c1 [Compound I-29, 1-[3-(6-tert-Butyl-8-fluoro-1-oxo-1H-phthalazin-2-yl)-2-hydroxymethyl-phenyl]-3-(pyrazin-2-ylamino)-1H-pyrazole-4-carboxylic acid amide]",0.43
3,"CC(C)(C)c1cc(F)c2c(=O)n(-c3cccc(-n4cc(C(N)=O)c(Nc5ccc(C(F)(F)F)cn5)n4)c3CO)ncc2c1 [Compound I-32, 1-[3-(6-tert-Butyl-8-fluoro-1-oxo-1H-phthalazin-2-yl)-2-hydroxymethyl-phenyl]-3-(5-trifluoromethyl-pyridin-2-ylamino)-1H-pyrazole-4-carboxylic acid amide]",0.57
4,"Cc1cc(Nc2nn(-c3cccc(-n4ncc5cc(C(C)(C)C)ccc5c4=O)c3CO)cc2C(N)=O)nn1C [Compound I-34, 1-[3-(6-tert-Butyl-1-oxo-1H-phthalazin-2-yl)-2-hydroxymethyl-phenyl]-3-(1,5-dimethyl-1H-pyrazol-3-ylamino)-1H-pyrazole-4-carboxylic acid amide]",0.51
5,"CC(C)(C)c1ccc2c(=O)n(-c3cccc(-n4cc(C(N)=O)c(Nc5cnccn5)n4)c3CO)ncc2c1 [Compound I-36, 1-[3-(6-tert-Butyl-1-oxo-1H-phthalazin-2-yl)-2-hydroxymethyl-phenyl]-3-(pyrazin-2-ylamino)-1H-pyrazole-4-carboxylic acid amide]",0.83
6,"Cc1ccc(Nc2nn(-c3cccc(-n4ncc5cc(C(C)(C)C)ccc5c4=O)c3CO)cc2C(N)=O)nc1 [Compound I-37, 1-[3-(6-tert-Butyl-1-oxo-1H-phthalazin-2-yl)-2-hydroxymethyl-phenyl]-3-(5-methyl-pyridin-2-ylamino)-1H-pyrazole-4-carboxylic acid amide]",1.13
7,"CC(C)(C)c1cc(F)c2c(=O)n(-c3cccc(-n4ccc(C(N)=O)n4)c3CO)ncc2c1 [Compound I-40, 1-[3-(6-tert-Butyl-8-fluoro-1-oxo-1H-phthalazin-2-yl)-2-hydroxymethyl-phenyl]-1H-pyrazole-3-carboxylic acid amide]",333
8,"CC(C)(C)c1cc(F)c2c(=O)n(-c3cccc(-n4cc(C(N)=O)cn4)c3CO)ncc2c1 [Compound I-41, 1-[3-(6-tert-Butyl-8-fluoro-1-oxo-1H-phthalazin-2-yl)-2-hydroxymethyl-phenyl]-1H-pyrazole-4-carboxylic acid amide]",268
9,"CC(C)(C)c1cc(F)c2c(=O)n(-c3cccc(-n4cc(C(N)=O)c5cncnc54)c3CO)ncc2c1 [Compound I-42, 7-[3-(6-tert-Butyl-8-fluoro-1-oxo-1H-phthalazin-2-yl)-2-hydroxymethyl-phenyl]-7H-pyrrolo[2,3-d]pyrimidine-5-carboxylic acid amide]",7.32
10,"CN1CCN(c2ccc3c(C(N)=O)cn(-c4cccc(-n5ncc6cc(C(C)(C)C)cc(F)c6c5=O)c4CO)c3n2)CC1 [Compound I-43, 1-[3-(6-tert-Butyl-8-fluoro-1-oxo-1H-phthalazin-2-yl)-2-hydroxymethyl-phenyl]-6-(4-methyl-piperazin-1-yl)-1H-pyrrolo[2,3-b]pyridine-3-carboxylic acid amide]",2.83
11,"CC(C)(C)c1cc(F)c2c(=O)n(-c3cccc(-n4cc(C(N)=O)c5ccc(N6CCOCC6)nc54)c3CO)ncc2c1 [Compound I-44, 1-[3-(6-tert-Butyl-8-fluoro-1-oxo-1H-phthalazin-2-yl)-2-hydroxymethyl-phenyl]-6-morpholin-4-yl-1H-pyrrolo[2,3-b]pyridine-3-carboxylic acid amide]",10.3
12,"CCOc1ccc(-c2ccc3c(C(N)=O)cn(-c4cccc(-n5ncc6cc(C(C)(C)C)cc(F)c6c5=O)c4CO)c3n2)cn1 [Compound I-45, 1-[3-(6-tert-Butyl-8-fluoro-1-oxo-1H-phthalazin-2-yl)-2-hydroxymethyl-phenyl]-6-(6-ethoxy-pyridin-3-yl)-1H-pyrrolo[2,3-b]pyridine-3-carboxylic acid amide]",11
13,"CC(C)(C)c1cc(F)c2c(=O)n(-c3cccc(-n4cc(C(N)=O)c5ccc(-c6ccccc6F)nc54)c3CO)ncc2c1 [Compound I-46, 1-[3-(6-tert-Butyl-8-fluoro-1-oxo-1H-phthalazin-2-yl)-2-hydroxymethyl-phenyl]-6-(2-fluoro-phenyl)-1H-pyrrolo[2,3-b]pyridine-3-carboxylic acid amide]",14.3
14,"CC(C)(C)c1cc(F)c2c(=O)n(-c3cccc(-n4cc(C(N)=O)c5ccc(-c6ccccc6Cl)nc54)c3CO)ncc2c1 [Compound I-47, 1-[3-(6-tert-Butyl-8-fluoro-1-oxo-1H-phthalazin-2-yl)-2-hydroxymethyl-phenyl]-6-(2-chloro-phenyl)-1H-pyrrolo[2,3-b]pyridine-3-carboxylic acid amide]",28.4
15,"CC(C)(C)c1cc(F)c2c(=O)n(-c3cccc(-n4cc(C(N)=O)c5ccc(Br)nc54)c3CO)ncc2c1 [Compound I-48, 6-Bromo-1-[3-(6-tert-butyl-8-fluoro-1-oxo-1H-phthalazin-2-yl)-2-hydroxymethyl-phenyl]-1H-pyrrolo[2,3-b]pyridine-3-carboxylic acid amide]",7.74
16,"CC(C)(C)c1cc(F)c2c(=O)n(-c3cccc(-n4cc(C(N)=O)c5ccc(C(O)CO)nc54)c3CO)ncc2c1 (stereo not drawn) [Compound I-49, 1-[3-(6-tert-Butyl-8-fluoro-1-oxo-1H-phthalazin-2-yl)-2-hydroxymethyl-phenyl]-6-(1,2-dihydroxy-ethyl)-1H-pyrrolo[2,3-b]pyridine-3-carboxylic acid amide]",13.9
17,"CC(C)(C)c1cc(F)c2c(=O)n(-c3cccc(-n4cc(C(N)=O)c5ccc(N6CCS(=O)(=O)CC6)nc54)c3CO)ncc2c1 [Compound I-50, 1-[3-(6-tert-Butyl-8-fluoro-1-oxo-1H-phthalazin-2-yl)-2-hydroxymethyl-phenyl]-6-(1,1-dioxo-1λ^6-thiomorpholin-4-yl)-1H-pyrrolo[2,3-b]pyridine-3-carboxylic acid amide]",12.7

# Stronger by IC50, values ahead:
row,IC50 [nM],SMILES
1,0.29,"CC(C)(C)c1cc(F)c2c(=O)n(-c3cccc(-n4cc(C(N)=O)c(Nc5ccc(Cl)cn5)n4)c3CO)ncc2c1 [Compound I-23, 1-[3-(6-tert-Butyl-8-fluoro-1-oxo-1H-phthalazin-2-yl)-2-hydroxymethyl-phenyl]-3-(5-chloro-pyridin-2-ylamino)-1H-pyrazole-4-carboxylic acid amide]"
2,0.18,"CC(C)(CN1CCC1)Oc1ccc(Nc2nn(-c3cccc(-n4ncc5cc(C(C)(C)C)cc(F)c5c4=O)c3CO)cc2C(N)=O)nc1 [Compound I-24, 3-[5-(2-Azetidin-1-yl-1,1-dimethyl-ethoxy)-pyridin-2-ylamino]-1-[3-(6-tert-butyl-8-fluoro-1-oxo-1H-phthalazin-2-yl)-2-hydroxymethyl-phenyl]-1H-pyrazole-4-carboxylic acid amide]"
3,0.09,"CN1CCn2nc(Nc3nn(-c4cccc(-n5ncc6cc(C(C)(C)C)cc(F)c6c5=O)c4CO)cc3C(N)=O)cc2C1 [Compound I-25, 1-[3-(6-tert-Butyl-8-fluoro-1-oxo-1H-phthalazin-2-yl)-2-hydroxymethyl-phenyl]-3-(5-methyl-4,5,6,7-tetrahydro-pyrazolo[1,5-a]pyrazin-2-ylamino)-1H-pyrazole-4-carboxylic acid amide]"
4,0.36,"CC(C)(C)c1cc(F)c2c(=O)n(-c3cccc(-n4cc(C(N)=O)c(Nc5ccccn5)n4)c3CO)ncc2c1 [Compound I-26, 1-[3-(6-tert-Butyl-8-fluoro-1-oxo-1H-phthalazin-2-yl)-2-hydroxymethyl-phenyl]-3-(pyridin-2-ylamino)-1H-pyrazole-4-carboxylic acid amide]"
5,0.22,"Cn1ccc(Nc2nn(-c3cccc(-n4ncc5cc(C(C)(C)C)cc(F)c5c4=O)c3CO)cc2C(N)=O)n1 [Compound I-28, 1-[3-(6-tert-Butyl-8-fluoro-1-oxo-1H-phthalazin-2-yl)-2-hydroxymethyl-phenyl]-3-(1-methyl-1H-pyrazol-3-ylamino)-1H-pyrazole-4-carboxylic acid amide]"
6,0.24,"CC(C)(C)c1cc(F)c2c(=O)n(-c3cccc(-n4cc(C(N)=O)c(Nc5ccc(F)cn5)n4)c3CO)ncc2c1 [Compound I-30, 1-[3-(6-tert-Butyl-8-fluoro-1-oxo-1H-phthalazin-2-yl)-2-hydroxymethyl-phenyl]-3-(5-fluoro-pyridin-2-ylamino)-1H-pyrazole-4-carboxylic acid amide]"
7,0.29,"Cc1cc(Nc2nn(-c3cccc(-n4ncc5cc(C(C)(C)C)cc(F)c5c4=O)c3CO)cc2C(N)=O)nn1C [Compound I-31, 1-[3-(6-tert-Butyl-8-fluoro-1-oxo-1H-phthalazin-2-yl)-2-hydroxymethyl-phenyl]-3-(1,5-dimethyl-1H-pyrazol-3-ylamino)-1H-pyrazole-4-carboxylic acid amide]"
8,0.24,"Cc1ccc(Nc2nn(-c3cccc(-n4ncc5cc(C(C)(C)C)cc(F)c5c4=O)c3CO)cc2C(N)=O)nc1 [Compound I-33, 1-[3-(6-tert-Butyl-8-fluoro-1-oxo-1H-phthalazin-2-yl)-2-hydroxymethyl-phenyl]-3-(5-methyl-pyridin-2-ylamino)-1H-pyrazole-4-carboxylic acid amide]"
9,0.17,"CC(C)(C)c1cc(F)c2c(=O)n(-c3cccc(-n4cc(C(N)=O)c(Nc5ccc(S(C)(=O)=O)cn5)n4)c3CO)ncc2c1 [Compound I-38, 1-[3-(6-tert-Butyl-8-fluoro-1-oxo-1H-phthalazin-2-yl)-2-hydroxymethyl-phenyl]-3-(5-methanesulfonyl-pyridin-2-ylamino)-1H-pyrazole-4-carboxylic acid amide]"
10,0.18,"CC(C)(C)c1cc(F)c2c(=O)n(-c3cccc(-n4cc(C(N)=O)c(Nc5ccc(C#N)cn5)n4)c3CO)ncc2c1 [Compound I-39, 1-[3-(6-tert-Butyl-8-fluoro-1-oxo-1H-phthalazin-2-yl)-2-hydroxymethyl-phenyl]-3-(5-cyano-pyridin-2-ylamino)-1H-pyrazole-4-carboxylic acid amide]"
